From patent US8598157B2, “5-alkynyl-pyridines” (Boehringer Ingelheim International GmbH, priority 2011, dated 2013)

Experiments:
PI3Kalpha = PI3Kalpha (Homo sapiens (Human), UniProt P42336); assay: Inhibition of PI3Kalpha-induced PIP-2 phosphorylation (filter-binding assay); format: biochemical; settings: 33P-ATP, p85alpha/His-p110alpha, read-out: IC50 PI3Kα
Text: Inhibition of PI3Kalpha-Induced PIP-2 Phosphorylation
This PI3Kalpha assay provides an IC50 value indicative of the activity of the compounds to inhibit PI3 kinase alpha activity. Inhibition of PI3 kinase would be expected to be indicative of activity in treating conditions of excessive or anomalous cell proliferation, such as cancers. See also J. A. Engelman, Nature Reviews Cancer, 2009, 9, 550-562; A. Carnero, Expert Opin. Investig. Drugs, 2009, 18, 1265-1277 and P. Liu et al., Nature Reviews Drug Discovery, 2009, 8, 627-64.
Method Type: Filter-Binding-Assay
Aliquoted in desired amounts and stored at −80° C. Final assay concentration 25 ng/well • Phosphotyrosin PDGFRbeta-peptide H-CGG-pY-[…]-pY-VPMLDM-NH2 was synthesized by Jerini Peptide Technologies (JPT) and used in a final conc. of 1.7 μM (stock 100 μM prepared in Assay buffer with DTT, aliquoted in desired amounts and stored at −80° C.) • Cold ATP (from Sigma; A-7699), 100 μM stock solution in H2O, use 1 μM final concentration in assay • [33P]-ATP, 370 MBq/ml from Amersham (#AH9968), use 0.5 μCi/well (10 mCi/ml) • Clear 96-well plates from Greiner (#655 162) • Filter plates: Perkin Elmer UniFilter GF/B #6005177 • Microscint 0 (from Perkin Elmer, #6013611) 2. Assay Procedure
The substrate-containing lipid vesicles are dissolved to a concentration of 0.637 mg lipid blend/ml assay buffer (with BSA, freshly added) in 50 ml Falcon->keep on ice, followed by ultrasonication (pulse of 15 sec followed by a pause of 10 sec, 4×). Compounds are serially diluted in assay buffer+6% DMSO and […] of each dilution is added per well of a 96-well plate (compounds are tested in duplicates) and mixed with 30 μl of the lipid vesicles containing PDGFR-Peptide ([…]) and PI3K alpha (25 ng/well final). The mixture is then incubated for 20 minutes at room temperature. Subsequently, 20 μl of assay buffer containing […] cold ATP and 0.5 μCi/20 μl 33P-ATP are added. The plates are then incubated at room temperature for 120 minutes (shaking with 300 rpm).
The reaction mix is transferred onto filter plates using “filtermate harvester” from Packard: filter plates are rinsed with PBS, then the reaction mix is filtered onto the filter plate, washed 5 times with PBS and are allowed to dry for 30-60 minutes at 50° C.
The plate bottom is sealed with Perkin Elmer white adhesive foil and 25 μl/well Microscint( ) are added, the top is covered with transparent adhesive foil and the plate is measured with Wallac Trilux 1450 Microbeta Counter.
As positive control serve wells containing vehicle controls (1% DMSO in assay buffer), showing non-inhibited kinase activity (high values). Wells containing assay buffer instead of enzyme can serve as control for background activity (low values).
Calculate IC50 values using the Smiley program (based on GrapPad Prism)

H460 cells = assay: alamarBlue H460 cell assay (antiproliferative/cytotoxicity); format: cell-based; settings: NCI-H460; H460 human lung carcinoma cells
Text: (§1) The H460, MB453, U87, MCF7 and BT474 alamarBlue cell assays provide EC50 values indicative of the antiproliferative or cytotoxic effects of the compounds to respectively the H460 (human non small cell line cancer), MB-453 (breast cancer cell line), U87 (glioblastoma cell line), MCF7 (breast cancer cell line) and BT474 (breast cancer cell line). As known in the field, antiproliferative or cytotoxic effect against this cell lines would be expected to be indicative of activity in treating lung, breast and brain cancers. See R. Marone R et al. Biochim. Biophys. Acta. 2008 January; 1784(1):159-85. S. Yaguchi et al., J. Natl. Cancer Inst. 2006 Apr. 19; 98(8):545-56.
(§2) Method Type: Antiproliferative/Cytotoxicity
(§3) alamarBlue® is designed to provide a rapid and sensitive measure of cell proliferation and cytotoxicity in various human and animal cell lines. The assay is based on the reduction of alamarBlue in the reducing environment of living (metabolically active) cells. In the presence of added cytotoxic or antiproliferative compounds, the innate metabolic activity ceases.
(§4) AlamarBlue is soluble and stable in culture medium. Measurements are made fluorometrically by exciting at 530-560 nm and measuring emission at 590 nm. In reporting percent alamarBlue reduction by monitoring fluorescence, data are expressed as fluorescence emission intensity units as a function of time of incubation.
(§5) 3. Equipment • 96-well plates, flat bottom (Falcon, Cat. No.: 353072) • 96-well plates, U-shaped (Costar, Cat. No.: 3799) • CO2-Incubator • Microplate Reader, Spectramax Plus, Molecular Devices 4. Typical Procedure • Day 0: Seed 3000 BT-474 cells (IMDM/5% FCS, 1% NEAA, 1% Sodiumpyruvat) in 150 μl medium into a 96-well plate, flat bottom (include mediumblank). Incubate plates at 37° C. in a CO2 incubator overnight. • Day 1: Dilute compounds to a concentration 40 μM->1:3 in medium, 10 dilution steps, in 96-well plates. • Add 50 μl per well of each dilution (total volume per well 200 μl; final conc. of cpds: 10 μM->1:3). If required, test further dilutions. • All concentrations are tested in duplicates. • Controls: Cells w/o cpd. (+50 μl medium/DMSO). • Cells are incubated with compounds for 5-6 days. • Day 6 or 7: Add 25 μl of alamarBlue solution to each well and incubate for 8 hours at 37° C. Measure fluorescence by exciting at 530-560 nm and measuring emission at 590 nm. 5. Evaluation • Subtract average value for medium blank from sample readings • Calculate EC50 using GraphPad Prism (Fifty)

MB453 cells = assay: alamarBlue MB453 cell assay (antiproliferative/cytotoxicity); format: cell-based; settings: Homo sapiens; MDA MB 453 breast cancer cell line
Text: as §1, §2, §3, §4, §5

U87 cells = assay: U87 cell assay (antiproliferative/cytotoxicity); format: cell-based; settings: U-87MG human glioblastoma cells
Text: as §1, §2, §3, §4, §5

BT474 cells = assay: alamarBlue BT474 cell assay (antiproliferative/cytotoxicity); format: cell-based; settings: BT-474 human breast cancer cell line
Text: as §1, §2, §3, §4, §5

Chain of PI3Kalpha (P42336 whole entry): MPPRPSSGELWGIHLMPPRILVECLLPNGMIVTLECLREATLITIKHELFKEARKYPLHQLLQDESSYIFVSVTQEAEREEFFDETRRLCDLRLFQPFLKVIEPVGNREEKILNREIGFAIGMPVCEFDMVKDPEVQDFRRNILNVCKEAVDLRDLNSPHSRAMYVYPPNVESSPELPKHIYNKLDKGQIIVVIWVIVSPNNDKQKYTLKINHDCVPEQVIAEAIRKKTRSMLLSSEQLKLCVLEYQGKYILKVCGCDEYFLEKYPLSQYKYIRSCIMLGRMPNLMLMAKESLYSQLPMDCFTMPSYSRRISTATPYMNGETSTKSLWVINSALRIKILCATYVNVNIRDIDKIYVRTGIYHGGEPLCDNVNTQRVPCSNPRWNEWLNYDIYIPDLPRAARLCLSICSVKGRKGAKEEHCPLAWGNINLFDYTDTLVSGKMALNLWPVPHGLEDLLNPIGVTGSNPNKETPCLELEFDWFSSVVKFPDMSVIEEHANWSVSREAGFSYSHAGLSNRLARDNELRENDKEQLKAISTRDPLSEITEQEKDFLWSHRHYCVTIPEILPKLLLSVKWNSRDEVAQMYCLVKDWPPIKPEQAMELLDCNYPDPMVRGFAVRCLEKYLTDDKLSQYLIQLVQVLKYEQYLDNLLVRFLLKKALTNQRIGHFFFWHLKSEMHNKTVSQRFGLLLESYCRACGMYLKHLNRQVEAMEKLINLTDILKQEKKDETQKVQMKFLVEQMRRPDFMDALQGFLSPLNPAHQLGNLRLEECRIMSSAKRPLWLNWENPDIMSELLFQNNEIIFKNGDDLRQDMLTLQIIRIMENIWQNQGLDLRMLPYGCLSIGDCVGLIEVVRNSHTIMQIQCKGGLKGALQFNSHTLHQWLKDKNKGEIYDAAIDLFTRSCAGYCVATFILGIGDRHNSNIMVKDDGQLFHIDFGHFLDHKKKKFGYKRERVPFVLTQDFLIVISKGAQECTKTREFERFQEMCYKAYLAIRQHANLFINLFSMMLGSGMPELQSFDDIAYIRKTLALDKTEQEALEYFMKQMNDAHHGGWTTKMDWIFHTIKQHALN

Structure (SMILES) | IC50 (PI3Kalpha) | EC50 (H460 cells) | EC50 (MB453 cells) | EC50 (U87 cells) | EC50 (BT474 cells)
CCc1nc(N)nc(N2CCC(O)CC2)c1C#Cc1cnc(C)c(NS(C)(=O)=O)c1 [Example I-35, N-{5-[2-Amino-4-ethyl-6-(4-hydroxy-piperidin-1-yl)-pyrimidin-5-ylethynyl]-2-methyl-pyridin-3-yl}-methanesulfonamide] | 5 nM | 25000 nM | – | – | –
CCc1nc(N)nc(N2CCCCC2)c1C#Cc1cnc(C)c(NS(C)(=O)=O)c1 [Example I-36, N-[5-(2-Amino-4-ethyl-6-piperidin-1-yl-pyrimidin-5-ylethynyl)-2-methyl-pyridin-3-yl]-methanesulfonamide] | 5 nM | – | – | – | –
CCc1nc(N)nc(N2CCC(C)(O)CC2)c1C#Cc1cnc(C)c(NS(C)(=O)=O)c1 [Example I-43, N-{5-[2-Amino-4-ethyl-6-(4-hydroxy-4-methyl-piperidin-1-yl)-pyrimidin-5-ylethynyl]-2-methyl-pyridin-3-yl}-methanesulfonamide] | 3 nM | 3670 nM | – | – | –
Cc1ncc(C#Cc2c(C)ncnc2NC(C)C)cc1NS(=O)(=O)c1ccccc1 [Example I-59, N-[5-(4-Isopropylamino-6-methyl-pyrimidin-5-ylethynyl)-2-methyl-pyridin-3-yl]-benzenesulfonamide] | 6 nM | 723 nM | 1930 nM | 1000 nM | 5000 nM
Cc1ncc(C#Cc2c(C)ncnc2N2CCOC[C@H]2C)cc1NS(=O)(=O)c1ccccc1 [Example I-69, N-{2-Methyl-5-[4-methyl-6-((R)-3-methyl-morpholin-4-yl)-pyrimidin-5-ylethynyl]-pyridin-3-yl}-benzenesuIfonamide] | 2 nM | – | – | – | 749 nM
Cc1ncc(C#Cc2c(C)ncnc2N2CCOC[C@@H]2C)cc1NS(=O)(=O)c1ccccc1 [Example I-70, N-{2-Methyl-5-[4-methyl-6-((S)-3-methyl-morpholin-4-yl)-pyrimidin-5-ylethynyl]-pyridin-3-yl}-benzenesulfonamide] | 0.2 nM | – | – | – | 615 nM
COCCN(C)c1ncnc(C)c1C#Cc1cnc(C)c(NS(=O)(=O)c2ccccc2)c1 [Example I-71, N-(5-{4-[(2-Methoxy-ethyl)-methyl-amino]-6-methyl-pyrimidin-5-ylethynyl}-2-methyl-pyridin-3-yl)-benzenesulfonamide] | 5 nM | 1620 nM | 2100 nM | 1190 nM | 1500 nM
Cc1ncc(C#Cc2c(C)ncnc2N(C)CC2CCOC2)cc1NS(=O)(=O)c1ccccc1 (stereo not drawn) [Example I-72, N-(2-Methyl-5-{4-methyl-6-[methyl-(tetrahydro-furan-3-ylmethyl)-amino]-pyrimidin-5-ylethynyl}-pyridin-3-yl)-benzenesulfonamide] | 8 nM | – | – | – | 5160 nM
COC1CCN(c2ncnc(C)c2C#Cc2cnc(C)c(NS(=O)(=O)c3ccccc3)c2)CC1 [Example I-74, N-{5-[4-(4-Methoxy-piperidin-1-yl)-6-methyl-pyrimidin-5-ylethynyl]-2-methyl-pyridin-3-yl}-benzenesulfonamide] | 2 nM | 703 nM | 987 nM | 557 nM | 400 nM

Second part, led by results:

IC50 (PI3Kalpha) | Structure (SMILES) | EC50 (H460 cells) | EC50 (MB453 cells) | EC50 (U87 cells) | EC50 (BT474 cells)
49 nM | CCc1ncnc(NC)c1C#Cc1cnc(C)c(NS(C)(=O)=O)c1 [Example I-33, N-[5-(4-Ethyl-6-methylamino-pyrimidin-5-ylethynyl)-2-methyl-pyridin-3-yl]-methanesulfonamide] | – | – | – | –
0.55 nM | CCc1ncnc(N2CCC(C)(O)CC2)c1C#Cc1cnc(C)c(NS(C)(=O)=O)c1 [Example I-42, N-{5-[4-Ethyl-6-(4-hydroxy-4-methyl-piperidin-1-yl)-pyrimidin-5-ylethynyl]-2-methyl-pyridin-3-yl}-methanesulfonamide] | 295 nM | – | – | –
2 nM | CCc1ncnc(N2CCCCC2)c1C#Cc1cnc(C)c(NS(C)(=O)=O)c1 [Example I-44, N-[5-(4-Ethyl-6-piperidin-1-yl-pyrimidin-5-ylethynyl)-2-methyl-pyridin-3-yl]-methanesulfonamide] | 117 nM | – | – | –
2 nM | Cc1ncc(C#Cc2c(C)ncnc2N2CCCOCC2)cc1NS(=O)(=O)c1ccccc1 [Example I-73, N-[2-Methyl-5-(4-methyl-6-[1,4]oxazepan-4-yl-pyrimidin-5-ylethynyl)-pyridin-3-yl]-benzenesulfonamide] | – | – | – | 1940 nM
1 nM | CCc1ncnc(N2CCOCC2)c1C#Cc1cnc(OC)c(NS(C)(=O)=O)c1 [Example I-75, N-[5-(4-Ethyl-6-morpholin-4-yl-pyrimidin-5-ylethynyl)-2-methoxy-pyridin-3-yl]-methanesulfonamide] | – | – | – | 247 nM
2 nM | CCc1ncnc(N2CCOCC2)c1C#Cc1cnc(OC)c(NS(=O)(=O)CC)c1 [Example I-76, Ethanesulfonic acid [5-(4-ethyl-6-morpholin-4-yl-pyrimidin-5-ylethynyl)-2-methoxy-pyridin-3-yl]-amide] | – | – | – | 342 nM
1 nM | CCc1ncnc(N2CCOCC2)c1C#Cc1cnc(OC)c(NS(=O)(=O)C2CC2)c1 [Example I-77, Cyclopropanesulfonic acid [5-(4-ethyl-6-morpholin-4-yl-pyrimidin-5-ylethynyl)-2-methoxy-pyridin-3-yl]-amide] | – | – | – | 263 nM
2 nM | CCc1ncnc(N2CCOCC2)c1C#Cc1cnc(OC)c(NS(=O)(=O)CCOC)c1 [Example I-78, 2-Methoxy-ethanesulfonic acid [5-(4-ethyl-6-morpholin-4-yl-pyrimidin-5-ylethynyl)-2-methoxy-pyridin-3-yl]-amide] | – | – | – | 469 nM
0.75 nM | CCc1ncnc(N2CCOCC2)c1C#Cc1cnc(OC)c(NS(=O)(=O)c2cccs2)c1 [Example I-79, Thiophene-2-sulfonic acid [5-(4-ethyl-6-morpholin-4-yl-pyrimidin-5-ylethynyl)-2-methoxy-pyridin-3-yl]-amide] | – | – | – | 20 nM
0.55 nM | CCc1ncnc(N2CCOCC2)c1C#Cc1cnc(OC)c(NS(=O)(=O)c2ccco2)c1 [Example I-80, Furan-2-sulfonic acid [5-(4-ethyl-6-morpholin-4-yl-pyrimidin-5-ylethynyl)-2-methoxy-pyridin-3-yl]-amide] | – | – | – | 40 nM
